We go through eight molecules from US8785500B2, “Intranasal administration of ketamine to treat depression” (priority 2006, dated 2014).

The test system of series [1] is subjects with DSM-IV treatment-resistant major depression. Nature of the series: Randomized, placebo-controlled, double-blind crossover study of a single intravenous ketamine hydrochloride infusion. To be noted: for effect size for the drug difference (d), HDRS: ketamine vs placebo. The text has this:
Treatment-resistant major depression is a relatively common occurrence in clinical practice, with up to 50 to 60% of patients not achieving adequate response following antidepressant treatment. […] If the depression has not benefited from at least two adequate trials of medications from different classes in the current episode, clinically significant resistance is present. Several schemes to “stage” the degree of resistance have been proposed. The most widely accepted scheme uses the staging system of Thase and Rush. The stages of resistance are as follows:
Thus, the patient population to be treated by the present invention may be defined according to any one or more of the above schemes. After a 2-week drug-free period, exemplary subjects having treatment-resistant depression were given an intravenous infusion of either ketamine hydrochloride (0.5 mg/kg) or placebo on 2 test days, a week apart. Subjects were rated at baseline and at 40, 80 minutes, 110 minutes, 230 minutes and days 1, 2, 3 and 7 post-infusion. The outcome of the treatment was measured using changes in scores on the primary efficacy to measure the 21-item Hamilton Depression Rating Scale (HDRS).
Men and women, ages 18 to 65 years, who were inpatients with a diagnosis of major depressive disorder recurrent without psychotic features as diagnosed by means of the Structured Clinical Interview for Axis I DSM-IV Disorders—Patient Version 28 were eligible to participate.
All subjects were in good physical health as determined by medical history, physical exam, blood labs, electrocardiogram, chest x-ray, urinalysis and toxicology. Subjects were free of comorbid substance abuse or dependence for at least 3 months and judged clinically not to be a serious suicidal risk.
After a 2 week drug-free period, 18 subjects with DSM-IV major depression were randomized to an intravenous infusion of either ketamine hydrochloride (0.5 mg/kg) or placebo (saline solution) given over 40 minutes with a Baxter infusion pump on 2 test days, a week apart, in a double-blind, crossover study. Seventeen subjects received ketamine and 14 received placebo.
Subjects were rated 60 minutes prior to the infusion and at 40, 80, 110, and 230 minutes as well as 1, 2, 3, and 7 days after the infusion. The 21-item HDRS, Beck Depression Inventory Scale (BDI; [31]), Brief Psychiatric Rating Scale-positive symptoms (BPRS; [32]), Young Mania Rating Scale (YMRS; [33]), and the visual analogue scales score (VAS-depression; [34]). Raters, who trained together to establish reliability, performed patient ratings. […] Subjects were rated by a separate set of raters to help maintain blind to the infusion procedures and resulting side effects. The first set of raters administered the scales on the day of infusion (60 minutes prior to the infusion and 40, 80, 110 post-infusion). From 230 minutes onwards (days 1 through 7), a separate group of raters rated the subjects. Clinical response was defined as a 50% or greater decrease in the HDRS rating scale from baseline and remission as HDRS≦7 [35].
A full factorial, fixed effects linear mixed model with a compound symmetry covariance structure was used to examine the differences between ketamine and placebo over 9 time points from baseline to 7 days. Restricted maximum likelihood estimation was used to estimate missing values. Significant effects were examined with simple effects tests. The 21-item HDRS was the primary outcome measure. Scores from the BDI, BPRS, YMRS, and VAS were secondary outcome measures. Secondary analysis included examination of the individual items of the HDRS. Significance was evaluated at α<0.05, two-tailed.

In series [2] the test system is subjects with major depression. As to conditions: cited from earlier work.
For series [3], the system named is men and women with intractable central neuropathic pain. As to conditions: cited from earlier work; for pain disability and subjective physical and mental function: 75 mg transdermally over 24 hours for 7 days.
Series [4] concerns male Wistar rats. As to conditions: single dose; cited from earlier work.
In series [5] the test system is NMDA receptor. As to conditions: cited from earlier work.
Series [6] deals with non-NMDA voltage-gated potassium currents. As to conditions: in vitro; cited from earlier work.
Series [7] deals with women after abdominal gynecological surgery with lidocaine epidural blockade. To be noted: cited from earlier work.
In series [8] the test system is chronic pain patients with breakthrough pain (BTP). To be noted: 10-50 mg intranasal; cited from earlier work.
For series [9] the following is noted: in vivo; cited from earlier work.
For series [10] the following is noted: in vivo; cited from earlier work. This is another data set of the same source.
The nature of series [11]: Intranasal versus intravenous ketamine plasma levels. To be noted: human, other: intranasal.
Procedure: The slow infusion of ketamine produces gradually increasing plasma levels during the infusion period. Dose-wise, the typical ketamine dose for surgical induction is between 1.0-2.0 mg/kg, with additional ketamine used to sustain anesthesia.
Series [12] deals with major depression. As to conditions: reviews of antidepressant trials; cited from earlier work.
For series [13] the following is noted: clinical trials; cited from earlier work.
The subject of series [14] is major depression. To be noted: administered orally; cited from earlier work.
[15] abbreviates: both, human, in vivo, intravenous, 0.5 mg/kg.
Where [16] appears, read: one day after infusion, intent to treat, n=17.

Structures are written as SMILES. Some results are limits rather than exact numbers.

By half-life is commonly meant how long it takes for the measured level to halve. Consider `CNC1(c2ccccc2Cl)CCCCC1=O` (racemic) [ketamine, 2-(2-chlorophenyl)-2-(methylamino)-cyclohexanone], for which the “onset of improvement in depression post-infusion” value in series [1] (HDRS vs placebo) is at most 2 h. Besides, the “effect size for the drug difference (d), HDRS” value in series [1] (after 1 week, completers) is on record as 0.68. Moreover, the “effect size for the drug difference (d), HDRS” value in series [1] (after 24 hours, completers) was found to be 1.46. In addition, in series [1] (setting [15]), the “only time at which BPRS positive symptoms were worse on ketamine than placebo” value turned out to be 40 min, the “only time at which YMRS scores were worse (higher) on ketamine than placebo” value came to 40 min and the “time beyond which euphoria or derealization/depersonalization did not persist” value is at most 110 min. Further, in series [1] (completers), the “earliest improvements, depressed mood and guilt (HDRS items)” value was 40 min; the “individual HDRS symptoms with only a significant main effect for drug” value is “symptoms improved on ketamine for suicide, insomnia, general somatic symptoms, genital symptoms, and hypochondriasis”; the “individual HDRS symptoms with significant time by drug interaction” value was “Depressed mood, guilt, work and interests, and psychic anxiety improved significantly”; the “time at which motor retardation and gastrointestinal symptoms (HDRS items) were worse” value is 40 min. Further, in [1] (first phase data only, significant through the seventh day), the “time by which HDRS scores were lower on ketamine” value came to 80 min. In series [1] (first-phase baseline 24.9±6.9, one week after infusion), the “baseline HDRS in the second phase of those who received ketamine first (carryover)” value is reported as 17.2±6.9. Further, the “Peak change in BPRS positive symptoms on Ketamine, Group” value in series [1] (group mean ±) was “+3.1 ± 3.4”. The “% Change in HDRS (day 1) Ketamine, Group” value in [1] (group mean ±, 0.5 mg/kg i.v. over 40 min, baseline to day 1) is given as −56.2 ± 20.4%. In addition, in series [1] (in vivo), the “side effects occurring more commonly on ketamine than placebo” value was “perceptual disturbances, confusion, elevations in blood pressure, euphoria, dizziness, and increased libido”. The “time after infusion within which side effects ceased” value in [1] (majority of side effects) was at most 80 min. In series [1] (setting [16]), the “subjects meeting remission criteria (HDRS≦7)” value amounted to 29% and the “subjects meeting response criteria (50% or greater decrease in HDRS)” value is on record as 71%. Further, in [1] (single infusion 0.5 mg/kg), the “subjects who maintained response at least 2 weeks” value was 2 subjects and the “subjects who maintained response for at least 1 week” value is given as 35%. In addition, the “time from which VAS depression (mood) improved on ketamine” value in series [1] (through 7 days) stood at 40 min. In [1] (through 7 days, completers), the “time from which self-rated BDI improved on ketamine” value was determined as 40 min. In addition, the “patients with 50% or greater decrease in HDRS during the 3-day follow-up period” value in series [2] (Berman et al.) is listed as 4 of 8. Also, the “onset of antidepressant effect post-infusion” value in series [2] (previous study (Berman et al.)) is 230 min. Also, the antidepressant effect result in [2] (single intravenous dose, 7 subjects) was “rapid and short-lived antidepressant effect”. In [3], the “pain disability and subjective physical and mental function” value was “significant improvement in pain disability, and subjective physical and mental function”. Further, the “time for which induction of behavioral despair is interfered with” value in [4] is given as “up to 10 days”. Also, in series [5], the “affinity for the NMDA receptor in contrast to memantine” value is given as “higher affinity for the NMDA receptor”, the “affinity for the NMDA receptor versus other sites” value is reported as “several fold higher than that for other sites” and the “open channel blocking/unblocking kinetics in contrast to memantine” value is reported as “much slower open channel blocking/unblocking kinetics”. For the same molecule, the “effect on non-NMDA voltage-gated potassium currents” value in [6] is “only reduces non-NMDA voltage-gated potassium currents at much higher than reported in patients anesthetized with ketamine”. In series [7] (transdermal 25 mg over 24 hrs), the side effects entry was “no side effects”. Moreover, the “time to rescue analgesic” value in [7] (transdermal patch 25 mg/24 hours, placebo 94±54) is 230 ± 112 min. In addition, in [8], the “breakthrough pain versus placebo” value is listed as “lower BTP” and the side effects result is on record as “very few side effects”. Besides, the half-life entry in series [9] is recorded as “approximately 2 hours”. Besides, the “intranasal plasma levels (pain) lower than in intravenous studies in depression” value in series [10] is recorded as 3-4 fold. In addition, in [11], the “i.v. dose roughly equivalent to the intranasal dose used for pain (50 mg)” value was about 0.1 mg/kg.
`CN[C@]1(c2ccccc2Cl)CCCCC1=O` [S(+)-ketamine]: in series [3] (50 mg, 75 mg or placebo), the “pain intensity (Visual Analog Scale)” value was “no change among groups”. In addition, in [3], the “pain disability and subjective physical and mental function” value is “significant improvement in pain disability, and subjective physical and mental function”. Further, in [3] (in vivo), the “dissociation or psychotic symptoms” value is given as “no reports of dissociation or psychotic symptoms”.
Regarding `CC(NC(C)(C)C)C(=O)c1cccc(Cl)c1` (centres unmarked) [bupropion], in [12], the “response rates at week 8” value is listed as 62%.
`Nc1nnc(-c2cccc(Cl)c2Cl)c(N)n1` [lamotrigine]: the antidepressant properties result in [13] is listed as “found to have antidepressant properties”.
For the molecule `CC12CC3CC(C)(C1)CC(N)(C3)C2` [memantine], the antidepressant effects entry in [14] is given as “did not show the low- to moderate-affinity non-competitive NMDA antagonist memantine, administered orally, to have antidepressants effects”.
Take `NC1(c2ccccc2Cl)CCCCC1=O` (centres unmarked) [norketamine]: the half-life in series [9] was about 5 h.
Turning to `Nc1nc2ccc(OC(F)(F)F)cc2s1` [riluzole], in series [13], the antidepressant properties entry is reported as “found to have antidepressant properties”.
On to `COc1ccc(C(CN(C)C)C2(O)CCCCC2)cc1` (centres unmarked) [venlafaxine], for which the “response rates at week 8” value in series [12] was 65%.
